The values that follow are results of earlier work, collected in patent US9801874B2, “Method for the preparation of liposome encapsulated vincristine for therapeutic use” (Spectrum Pharmaceuticals, Inc., priority 2012, dated 2017).

Where a name gives a salt, the structure may show the parent alone.

For this data set the following is noted: 1:1 sulfate salt, crystalline powder.

For the compound `CCC12C=CCN3CC[C@@]4(c5cc([C@@]6(C(=O)OC)CC7CN(CCc8c6[nH]c6ccccc86)C[C@](O)(CC)C7)c(OC)cc5N(C=O)[C@H]4[C@@](O)(C(=O)OC)C1OC(C)=O)C32` (stereo partly shown) [Vincristine sulfate, 22-oxovincaleukoblastine], the solubility in water entry was “soluble in water”.
